Structure (SMILES)	melting point [°C]
CC(COc1ccccc1)C1CC=C2C3=C(CCC21C)C1(C)CCC(O)C(C)(C)C1CC3 (stereo unspecified)	134 to 137
CCOC(=O)c1c(Br)nn(C)c1S(N)(=O)=O	96 to 98
COC(=O)c1cccc(C=O)c1O	82 to 84
C=C1CCC2C3CCc4cc(O)c(C=O)cc4C3CCC12C (stereo unspecified)	128 to 130
N#Cc1ccc2c(c1)N(C1CC1)C=NS2(=O)=O	273 to 276
COc1ccc2c(c1)c1c(n2C)C(=O)NCCO1	184 to 186
COC(=O)CCc1cc2c(s1)NC(=O)C(C)N=C2c1ccccc1Cl (stereo unspecified)	196 to 197
CCOc1cc([N+](=O)[O-])ccc1C(O)c1cc(C)ccn1 (stereo unspecified)	114 to 115
CCCc1c(OCCCOc2c(C(C)=O)ccc(OCCCC(=O)O)c2CCC)ccc(C(C)=O)c1O	96 to 99
CCOCCOC(=O)C1=C(C)NC(C=O)=C(C(=O)OCC)C1c1cccc([N+](=O)[O-])c1 (stereo unspecified)	100 to 101
CCCCCCCCCCCCOc1cc(C#N)c(C#N)cc1OCCOCCOCCOC	38 to 40
CN1CCC(C(O)(c2ccn(C)c2)c2ncc[nH]2)CC1 (stereo unspecified)	171
O=C(O)CCCNC(=O)CCCNC(=O)c1cc(Br)no1	157 to 158
O=C1CCC(CCO)(c2ccc(F)c(F)c2)CN1Cc1cc(C(F)(F)F)cc(C(F)(F)F)c1 (stereo unspecified)	120
CCCCCCCCCCCCCCCCS(=O)(=O)Nc1cccc(C(=O)CBr)c1	92 to 95
CS(=O)(=O)On1c(=O)c2cc3c(=O)n(OS(C)(=O)=O)c(=O)c3cc2c1=O	> 300

Structure (SMILES)	melting point [°C]
CCSc1c[nH]nc1C1=CCCN(C)C1	95 to 97
CC1OC(=O)C2C1C1CCC2(OC(=O)C(C)(C)C)O1 (stereo unspecified)	114 to 115
CC(=O)Nc1c(I)c(C(=O)OCOC(=O)C(C)(C)C)c(I)c(N(C)C(C)=O)c1I	232 to 234
O=C(Nc1cccc(Cc2nnn[nH]2)c1)C(F)(F)C(F)(F)C(F)(F)F	148 to 151
O=C1N=C(N2CCOCC2)SC1=Cc1ccc(F)c(-c2ccc(O)c(C34CC5CC(CC(C5)C3)C4)c2)c1	338 to 343
COc1ccc(Oc2c(C)cc(CC(=O)O)cc2C)cc1C(C)C	118 to 120
COc1cccc2c(CCO)c(C)oc12	58 to 59
COc1ccc(C2Nc3ccc(Cl)cc3C(C#CC3CC3)(C(F)(F)F)O2)cc1OC (stereo unspecified)	172 to 175
CCOC(=O)c1ncn2c1[C@@H]1CCCN1C(=O)c1cc(Cl)ccc1-2	242 to 244
COC(=O)C1C2CCC(C2)C1N(C)S(=O)(=O)c1ccc(O)cc1 (stereo unspecified)	163 to 164
COc1cc(N=CN(C)C)c(Cl)cc1C(=O)NC1CN2CCC1CC2 (stereo unspecified)	178 to 180
O=c1[nH]c(=O)n(C2CC(Cl)C(CCl)O2)cc1C=CBr (stereo unspecified)	184
COc1ccc2[nH]c(C(F)(F)F)c(C#N)c2c1	189 to 190
Cc1cc(O)c(C23CC4CC(CC(C4)C2)C3)cc1Br	155 to 156
CN(C)S(=O)(=O)c1cc2c(c(C(=O)Cl)c1)OCCO2	160 to 162

Continued, values first:

melting point [°C]	Structure (SMILES)
126	Cc1cccc(CC(=O)c2ccnc(Br)c2)n1
157	COc1ccc2nc(SCc3nccc(OC)c3OC)[nH]c2n1
100 to 101	Cc1oc(-c2ccccc2Cl)nc1CCOc1ccc([N+](=O)[O-])cn1
92 to 93	O=C1CCCN1C(=O)Oc1ccccc1Cl
222 to 224	CCOC(=O)c1cn(C)c2cc(C(F)(F)F)ccc2c1=O
149 to 151	COc1ccc2c(c1)N(c1ccccc1F)C(=O)C2(C)NC(=O)OCc1ccccc1 (stereo unspecified)
150 to 151	CCC(C)NC(=O)c1nc2cnn(CC)c2nc1-c1ccccc1 (stereo unspecified)
181 to 182	CC(C)(C)C(NC(=O)CCCc1cccnc1)NC(=NC#N)Nc1cccc2ncccc12 (stereo unspecified)
194 to 205	COc1ccc(-c2csc(N)n2)cc1
96 to 97	CCCCCCOC(=O)c1cccc(-c2cn(C)cc(-n3cccn3)c2=O)c1
204	CN1CCN(c2nc(-c3ccccc3Cl)c3cc([N+](=O)[O-])ccc3n2)CC1
159 to 160	O=c1nc(N2CCc3ccccc3C2)sc2ncccc12
48 to 52	COc1ccc(S(=O)(=O)N(Cc2ccccc2)[C@H](CC(C)C)C(=O)NO)cc1
235 to 237	CC12CCC3c4ccc(C(=O)O)cc4CCC3C1CCC2C(=O)c1ccc2c(c1)OCO2 (stereo unspecified)
169 to 170	CN(CCCNC(=O)c1cc(Cl)cc2nc3ccccc3nc12)CCCNC(=O)c1cc(Cl)cc2nc3ccccc3nc12
113 to 115	O=C(NCc1ccccc1)c1ccc2cnccc2n1
248 to 249	COc1ccc(-c2ccc(Cl)cc2)c(COc2ccc(-c3nc4cc(C(=O)O)ccc4n3C3CCCCC3)cc2)c1
123 to 124	CC(C)c1ccc2c(c1)c(SCC1CC1)c(CC(C)(C)C(=O)O)n2Cc1ccc(Cl)cc1
63 to 64	O=C1Cc2cc(F)ccc2Oc2ccccc21
209 to 210	Cc1csc(-c2ccc3c(ccn3S(=O)(=O)c3ccccc3)c2)n1

melting point [°C]	Structure (SMILES)
208 to 210	O=C(NO)c1ccc2c(c1)CN(C(=O)c1ccc3ncccc3c1)C2
288 to 290	O=C(O)c1cn(-c2ccc(O)cc2)c2cc(F)c(F)cc2c1=O
191 to 195	C=CCOc1nc2ccccc2c2ncc(C(=O)OCC)c(=O)n12
133 to 134	CN1C(=O)c2cccnc2N(CCO)c2ccccc21
65	CC(=O)OCC1CCCn2c(cc3ccccc32)C1 (stereo unspecified)
136 to 137	CC(O)c1cc(-c2cccc(F)c2)ccc1N (stereo unspecified)
128 to 129	COC(=O)c1ccc(NC(=O)[C@H](Cc2ccc(-c3ccccc3)cc2)NCP(=O)(OC)OC)cc1
146	CC(NC(=O)OCc1ccccc1)NC(=O)C1C(C)(C)CCC1(C)C (stereo unspecified)
145 to 147	CCN1C(=O)C(C)(C)C(=O)N(C)c2cc(CN(CCn3ccc4sccc4c3=O)Cc3cnccc3C)ccc21
91 to 93	c1ccc2c(c1)-c1sccc1C2Cc1ccncc1 (stereo unspecified)
294 to 297	CC(C)(C)c1ccccc1-n1c(=O)[nH]c2c(C(N)=O)nc(-c3cccc(O)c3)nc21
144 to 145	CC(C#Cc1ccc(Oc2ccc(C(C)(C)C)cc2)o1)N(O)C(N)=O (stereo unspecified)
227 to 229	COc1ccc2c(C(=O)O)ccc(OC)c2c1
86 to 90	COc1ccc(C(C#Cc2ccccc2)Cc2noc(C)n2)cc1OC1CCCC1 (racemic)
168	COc1cc2c(cc1OC)CN(CC(O)c1ccc(N)cc1)CC2 (stereo unspecified)
108 to 110	O=C1c2ccccc2C(=O)N1CCCN1CCC(=C(c2ccccc2)c2ccccc2)CC1
62 to 65	CCOC(=O)C(Cc1ccc(OC)cc1)c1cc2cc(Br)ccc2s1 (stereo unspecified)
100 to 101	O=C(Cc1ccccc1)Nc1ccccc1SCc1ccc(Cl)cc1
187 to 188	Cc1c(NC(=O)c2ccc(-c3ccc4c(c3)OCCO4)cc2)ccc2cc(CN3CCCC3)cnc12
88 to 90	COc1ccc(C2CNC(=O)C2)cc1OCCC(C)N1CCN(c2ccccc2)CC1 (stereo unspecified)

— a melting point compilation (Tetko et al.; mined from patent text by program, amines drawn as free bases though some values may be those of a salt)
